In paper PMC7377239, “Cardiovascular Effects of Polychlorinated Biphenyls and Their Major Metabolites” (Environmental Health Perspectives, 2020):
Where two headings read alike, the source gives them in different places.

What was measured:
[1] = tested on: iCell endothelial cells (human iPSC-derived ECs); test: Tube formation (tubulogenesis) assay in iCell endothelial cells, 18 h; type: cell-based; conditions: Homo sapiens, Endothelial cell, endothelial cells (endo), 18 hr
Experimental: The culture conditions of iCell®-endothelial cells were as reported elsewhere ([Iwata et al. 2017]). Briefly, T75 flasks were coated with a fibronectin solution ( 3 μg/cm^2 ) followed by incubation for 1–2 h. Cells were thawed for 3 min in a 37°C water bath. Thawed cells were added to maintenance medium made of VascuLife VEGF Medium Complete Kit, excluding the supplied FBS, and iCell® Endothelial Cells Medium Supplement. The final formulation of the maintenance medium is detailed in ([Iwata et al. 2017]). The aliquoted fibronectin solution was aspirated from the T75 flasks, and cells were seeded at 1.0×10^4 cells/cm^2 . Cells were maintained at 37°C and 5% CO2 with media changes occurring every 2 d and passaged every 3–4 d using TrypLE™ Express. All experiments were conducted on cells between passages 1 and 5.
Tube formation assays were performed on Geltrex™ LDEV-free reduced growth factor basement membrane using both iCell®-endothelial cells and HUVECs in 384-well format exactly as detailed in Iwata et al. ([2017]). Negative controls included media-only and vehicle control (i.e., 0.5% vol/vol DMSO in cell culture media) wells. Positive assay controls were consistent with previously published reports ([Iwata et al. 2017]) and included TAB ( 50μM ) as a cytotoxic control, and nocodazole ( 0.01–1μM ), suramin ( 0.5–50μM ), histamine ( 0.1–100μM ), and chloroquine ( 1–500μM ) as chemicals associated with specific effects on ECs. Each test chemical was screened in triplicate for each concentration. Briefly, for iCell®-endothelial cells, starvation media consisted of VascuLife® basal medium with 4 mM L-glutamine LifeFactor and 0.1% iCell®-endothelial cells medium supplement. To counter dilution effects, a 2× concentration of the HUVEC maintenance medium supplemented with additional VEGF was created (EGM™-2 BulletKits™ at 2× concentration; also the VEGF component was replaced with 12.5 ng/mL VEGF). Geltrex™ LDEV-free reduced growth factor basement membrane was thawed overnight and dispensed into 384-well plates ( 10μL/well ) with tapping and rotating to evenly coat. The plates were incubated for 1 h in a cell culture incubator at 37°C and 5% CO2 . A 2× PCB plate (containing all of the PCBs and metabolites in dose–response) was prepared in basal media and added, 25μL per well, to the Geltrex™ coated plates. On separate plates, cells were seeded 7,500 (iPSC- ECs) or 3,500 (HUVEC) cells/well. Cells were exposed to chemicals overnight at 37°C and 5% CO2 and stained with 3× concentration of calcein AM ( 25μL /well, 6μmol/L ) for 15 min before imaging. Images were captured at 4× magnification with the FITC filter (calcein AM). Images were analyzed with the angiogenesis module software within MetaXpress™ (Molecular Devices).
(§1) Phenotypic responses were quantitatively assessed using concentration–response modeling as detailed elsewhere ([Sirenko et al. 2017]). Briefly, phenotypic readouts were normalized to vehicle controls and fit to a four-parameter logistic model in R studio software (version 3.1.1; R Development Core Team). Following EPA guidance on dose–response modeling, a cutoff of one standard deviation across means of vehicle control (i.e., 0.5% vol/vol DMSO in cell culture media) wells was applied to determine the point-of-departure (POD) values ([U.S. EPA 2012]). In the absence of a concentration–response, the highest tested concentration (i.e., 100μM ) was assigned as “no observable adverse effect level.” The concentration–response assessment R script, as well as templates for vehicle and concentration–response data, are available as a supplement to Sirenko et al. ([2017]). The ability of physicochemical properties to predict differences in PODs were evaluated by multiregression and mixed-effects modeling using R.

HUVECs = test: High-content imaging cytotoxicity in HUVECs, 24 h; type: cell-based, human; conditions: Homo sapiens, HUVEC, 24 h, HUVEC, 24 hr
Experimental: Similar to the cultivation of iCell®-endothelial cells, HUVEC maintenance and experimentation are detailed elsewhere ([Iwata et al. 2017]). Briefly, HUVECs were thawed, seeded, and grown in T75 tissue culture flasks in Medium 199 with EGM™-2 BulletKits™. HUVECs were incubated at regular cell culture conditions, 37°C and 5% CO2 , and passaged every 2–3 d using TrypLE™ Express. To ensure adequate endothelial function, experiments were performed with cells between passages 1 and 5.
Cytotoxicity was assessed in parallel experiments. For iCell®-endothelial cells, 384-well plates were coated with a 30μg/mL fibronectin solution ( 10μL/well ) and incubated for 2 h at RT. iCell®-endothelial cells were dissociated with TrypLE™ Express and prepared into a solution to achieve 750 cells per well and 50μL of total volume. The fibronectin solution was removed from the 384-well plate, and cells were plated. For HUVECs, similar dissociation and the same cell density were used for plating with the exclusion of the fibronectin solution. Cells were incubated at 37°C and 5% CO2 until a monolayer was formed, typically 3–5 d. 2×PCB plates were created with the requisite maintenance medium. Before treatment, the medium in the wells was exchanged to 25μL/well of fresh maintenance medium. 2×PCB chemical solutions ( […] ) were added. After 24 h incubation at 37°C and 5% CO2 , cells were stained with Hoechst 33342, MitoTracker™ Orange, and calcein AM for 20 min before replacing the staining media with FluoroBright DMEM. Cell culture plates were imaged using the ImageXpress® Micro Confocal high-content imaging system (Molecular Devices). Images were acquired at 10× magnification with DAPI, TRITC, or FITC filter (Hoechst 33342, MitoTracker™, or calcein AM, respectively). The multiwavelength cell scoring applications module in MetaXpress™ (Molecular Devices) was used to analyze the images.
as §1

## Oc1ccc(O)c(-c2ccc(Cl)cc2)c1 [2',5'-diOH-PCB 3, 4-Chloro-2′,5′-dihydroxybiphenyl]
[1]; tube formation mtl, read-out: POD endo.mtl.18hr
  minimal effective concentration: 0.47 µM
[1]; tube formation tlps, read-out: POD endo.tlps.18hr
  minimal effective concentration: 0.53 µM
[1]; tube formation tta, read-out: POD endo.tta.18hr
  minimal effective concentration: 1.63 µM
[1]; tube formation ttl, read-out: POD endo.ttl.18hr
  minimal effective concentration: 1.51 µM
HUVECs; cyto, read-out: POD huvec.cyto.24hr
  minimal effective concentration: 0.12 µM
HUVECs; mito, read-out: POD huvec.mito.24hr
  minimal effective concentration: 0.13 µM
HUVECs; mitoint, read-out: POD huvec.mitoint.24hr
  minimal effective concentration: 3.51 µM
HUVECs; nma, read-out: POD huvec.nma.24hr
  minimal effective concentration: 8.87 µM
HUVECs; tc, read-out: POD huvec.tc.24hr
  minimal effective concentration: 0.12 µM
